Measurements published in patent publication US20240246042A1, “METHOD FOR EMULSIFICATION USING IONIC FLUX” (Purdue Research Foundation, priority 2023, published 2024).
Read-outs that look alike come from different tables or passages of the source.

Legend:
[1] = Gibbs free energy of ion transfer and ion transfer potentials across the water and DCE phase; assay type: physicochemical
Excerpt: The Gibbs free energy of ion transfer and the ion transfer potentials for relevant ions across the water and DCE phase were studied.

[2] = transfer from water to DCE; cited from earlier work
[3] = assay type: physicochemical; settings: aqueous phase None; cathode in aqueous, anode in DCE (per FIG. 23C, 24D-F); 5 mA, 5 min
Procedure: E) The cathode was placed in an aqueous phase containing no phase-transfer agent, and the anode was placed in DCE containing 0.1 M [NBu4][Br]. F) The cathode was placed in an aqueous phase containing no phase-transfer agent, and the anode was placed in DCE containing 0.1 M [NHx][ClO4].
All experiments were performed using bi-phasic systems consisting of immiscible solutions, such as 1,2-dichloroethane and water. Before experimentation, a platinum wire (r=1 mm) was sealed within a cell while maintaining an electrical connection. […] A secondary platinum wire (r=1 mm) was then submerged into the aqueous top layer to complete the circuit and allow for current to flow. Upon submersion, a current was then applied across the system using DC power supply. Current was maintained at 5 mA for a total duration of 5 min. Solutions were allowed to rest for an additional 5 minutes before additional experimentation or measurement.
The droplet sizes were measured. In these measurements, the resulting top layer and bottom layer from the prior section were allowed to rest for 5 minutes and were then transferred to a 1 cm glass cuvette. After transfer, the cuvette was inserted into the DLS instrumentation and was allowed to perform dynamic light scatter measurements to determine the size and intensity of the droplets formed during electro-emulsification. […]

Δφw→DCE^0 (standard ion transfer potential) ([1]; transfer from water to DCE) [mV] | Compound | Δφw→DCE^0 (standard ion transfer potential) [1] [mV] | ΔGw→DCE^0 (standard Gibbs free energy of ion transfer) [2] [kcal/mol] | Average Size (d · nm) N = 3 [3] [nm] | Zeta Potential [3] [mV]
−610 | [Na+] [Na^+] | – | 14.1 | – | –
−548 | [K+] [K^+] | – | 12.6 | – | –
−481 | Cl [Cl^−] | – | 11.1 | – | –
−627 | [H+] [H^+] | – | 14.5 | – | –
−399 | Br [Br^−] | – | 9.2 | – | –

More lines, now with the values behind:

Compound | Δφw→DCE^0 (standard ion transfer potential) ([1]; transfer from water to DCE) [mV] | Δφw→DCE^0 (standard ion transfer potential) [1] [mV] | ΔGw→DCE^0 (standard Gibbs free energy of ion transfer) [2] [kcal/mol] | Average Size (d · nm) N = 3 [3] [nm] | Zeta Potential [3] [mV]
CC[N+](CC)(CC)CC [NEt4^+, tetraethylammonium] | – | −44 | – | – | –
CCCC[N+](CCCC)(CCCC)CCCC [NBu4^+, tetrabutylammonium] | 226 | – | – | – | –
CCCCCC[N+](CCCCCC)(CCCCCC)CCCCCC.[O-][Cl+3]([O-])([O-])[O-] [[NHx4][ClO4], tetrahexylammonium perchlorate] | – | – | – | 3477 | −6.031
F[P-](F)(F)(F)(F)F [PF6^−] | −90 | – | 2.08 | – | –
[O-][Cl+3]([O-])([O-])O [ClO4^−] | −178 | – | 4.11 | – | –
